Results as given in the supplement of paper PMC10290057.
Where a name gives a salt, the structure may show the parent alone.

Test system: HCT116
Experiment: efficacy (fitted maximal change in viability relative to DMSO control); higher = less cytotoxic (negative = loss of viability)
Conditions: 48 h
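Further: Luminescence-based viability readout, five doses per compound, normalized against on-plate DMSO and empty-well controls, followed by dose-response curve fitting for every drug.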

Compared with `CC1(N)CCN(c2cnc(-c3cccc(Cl)c3Cl)c(N)n2)CC1` [SHP-099], `Nc1c2c(nc3ccccc13)CCCC2` [Tacrine hydrochloride] is lower in efficacy: -5.94% for the first, -50.9% for the second.

Going from `Cc1cccc(-c2n[nH]cc2-c2ccc3ncccc3n2)n1` [SJN-2511] to `CC1=C(F)C=CC(=C1)N2C(=O)\C=C/C3=C2C4=C([NH]C=C4)N=C3` [STK16-IN-1], the efficacy falls from 6.89% to -45.7%.

First: Oc1ccc(Nc2nc(-c3ccc(Cl)cc3)cs2)cc1 [SKI-II]
Second: COc1nc(-c2ccc3c(c2)OCO3)n(-c2ccc(NC(=O)CSc3ccccc3)cc2)n1 [Secin H3]
The efficacy of the first is lower: -62.8% for the first, -15.5% for the second.

Going from `Cc1ccc(NC(=O)Nc2nnc(Sc3ncnc4cc(OCCCN5CCOCC5)ccc34)s2)cc1` [SKLB4771] to `CNC(=O)CN1CCC(Oc2cc3c(Nc4cccc(Cl)c4F)ncnc3cc2OC)CC1` [Sapitinib], the efficacy falls from -24.1% to -49.3%.

First: CC1OC(OC/2=C(/OC3=C(C(=CC(=C3)O)O)C2=O)C4=CC=C(O)C=C4)C(O)C(OC(C)=O)C1OC(C)=O (stereo not drawn) [SL-0101-1]
Second: COc1cc([C@H]2Oc3cc([C@H]4Oc5cc(O)cc(O)c5C(=O)[C@@H]4O)ccc3O[C@@H]2CO)ccc1O [Silybin]
The efficacy of the first is higher: 6.12% for the first, -13.3% for the second.

Compared with `O=C1NC(=O)/C(=C/c2cccc(C(F)(F)F)c2)S1` [SMI-4a], `Cc1cc(C)c(/C=C2\C(=O)Nc3ccccc32)[nH]1` [Semaxanib] is lower in efficacy: -22.5% for the first, -29.1% for the second.

First: CC1(C)CC(=O)c2c(C(F)(F)F)nn(-c3ccc(C(N)=O)c(NC4CCC(O)CC4)c3)c2C1 (stereo not drawn) [SNX-2112]
Second: CC1(C)CC(=O)c2c(C(F)(F)F)nn(-c3ccc(C(N)=O)c(NC4CCC(OC(=O)CN)CC4)c3)c2C1 (stereo not drawn) [SNX-5422]
The efficacy of the first is higher: -53.8% for the first, -57.9% for the second.

First: Cc1c(C)n(Cc2ccc(-c3ccccc3C(=O)O)cc2)c2ccc(C(=O)N[C@@H](C)c3ccc([N+](=O)[O-])cc3)cc12 [SR-1664]
Second: Cc1cc(C)c([S+](=O)([O-])N(CCc2cccc(Br)c2)Cc2ccc(-c3cccc([S+](C)(=O)[O-])c3)cc2)c(C)c1 [SR-9243]
The efficacy of the first is lower: 14.2% for the first, 15.4% for the second.

Going from `Fc1cccc(-n2cnc3c(NCc4nc5ccc(F)c(F)c5[nH]4)nc(N4CCOCC4)nc32)c1` [SR-3029] to `OC(=O)\C1=C\N(C2=CC=C(F)C=C2)C3=C(C=C(F)C(=C3)N4CCNCC4)C1=O` [Sarafloxacin hydrochloride], the efficacy rises from -53.1% to 14%.

Going from `COCCCc1sc(-c2ccccc2)nc1C(=O)Nc1ccccc1-c1nc2cc(CN3CCCC3)cnc2s1` [SRT-3025] to `COc1cc2c(cc1OC)CN(CCc1ccc(NC(=O)c3cc(OC)c(OC)cc3NC(=O)c3cnc4ccccc4c3)cc1)CC2` [Tariquidar], the efficacy falls from 7.71% to -11.3%.

Compared with `Cc1c[nH]c(/C=C2\C(=O)Nc3ccccc32)c1CCC(=O)O` [SU-5402], `C\C1=C(/C)C(=O)\C(=C(\C)C1=O)C(CCCCCC(O)=O)C2=CC=CC=C2` (stereo not drawn) [Seratrodast] is higher in efficacy: -32.1% for the first, -11.8% for the second.

Going from `CC(C)(C)NCC(O)c1ccc(O)c(CO)c1` (stereo not drawn) [Salbutamol sulfate] to `CNCC(O)c1ccc(O)cc1` (stereo not drawn) [Synephrine], the efficacy falls from -14.1% to -16.7%.

Going from `OCc1ccccc1O[C@@H]1O[C@H](CO)[C@@H](O)[C@H](O)[C@H]1O` [Salicin] to `CN(N=O)C(=O)N[C@@H]1[C@@H](O)[C@H](O)[C@@H](CO)O[C@@H]1O` [Streptozocin], the efficacy falls from 14% to -15.5%.

First: CC(C)=CCC/C(C)=C/CC/C(C)=C/CSc1ccccc1C(=O)O [Salirasib]
Second: CC(C)=CC[C@@H](O)C/1=C/C(=O)C2=C(O)C=CC(=C2C1=O)O [Shikonin]
The efficacy of the first is lower: -28.8% for the first, -13.1% for the second.

First: C[C@@H](c1ccc2nccn2c1)n1nnc2ncc(-c3cnn(C)c3)nc21 [Savolitinib]
Second: Cn1cc(-c2nc(N[C@@H]3CCCC[C@@H]3N)c(F)c3c2C(=O)NC3)cn1 [TAK-659]
The efficacy of the first is lower: -32.1% for the first, -31.1% for the second.

Going from `N#C[C@@H]1C[C@@H]2C[C@@H]2N1C(=O)[C@@H](N)C12CC3CC(CC(O)(C3)C1)C2` [Saxagliptin] to `C[C@@H]1C\C2=C(CCC(=O)C2)/[C@H]3CC[C@@]4(C)[C@@H](CC[C@@]4(O)C#C)[C@H]13` [TIBOLONE], the efficacy rises from -9.01% to -7.38%.

Compared with `Cc1ncc([N+](=O)[O-])n1CC(C)O` (stereo not drawn) [Secnidazole], `CC(C)NCC(O)c1ccc(N[S+](C)(=O)[O-])cc1` (stereo not drawn) [Sotalol] is lower in efficacy: -13.5% for the first, -17.6% for the second.

Compared with `COc1cc(C[C@@H](CO)[C@H](CO)Cc2ccc(O)c(OC)c2)ccc1O` [Secoisolariciresinol], `O=C([O-])C(O)Cc1ccc(O)c(O)c1` (stereo not drawn) [Sodium Danshensu] is lower in efficacy: 9% for the first, -9.88% for the second.

Compared with `CC(C)[C@H](O)C(=O)N[C@@H](C)C(=O)N[C@@H]1C(=O)N(C)CCc2ccccc21` [Semagacestat], `CC(C)OC(=O)[C@H](C)N[P@](=O)(OC[C@H]1O[C@@H](N2\C=C/C(=O)NC2=O)[C@](C)(F)[C@@H]1O)OC3=CC=CC=C3` [Sofosbuvir] is higher in efficacy: -9.53% for the first, -5.68% for the second.

Going from `CC(C)[C@](O)(c1ccc2cc(OC(F)F)c(OC(F)F)cc2c1)c1c[nH]nn1` [Seviteronel] to `CC(C)(CNC(=O)c1cccc(-c2noc(C(F)(F)F)n2)c1)c1coc(-c2ccccc2)n1` [TMP-195], the efficacy rises from -56.2% to -21.4%.

Compared with `CC(C)CC(N(C)C)C1(c2ccc(Cl)cc2)CCC1` (stereo not drawn) [Sibutramine hydrochloride], `CCOC(=O)c1ccc(C#Cc2ccc3c(c2)C(C)(C)CCS3)nc1` [Tazarotene] is higher in efficacy: -45.3% for the first, -38.2% for the second.

Going from `COC/1=C/[C@@H]2[C@@H]3CC4=C(C(=C(OC)C=C4)O)[C@]2(CCN3C)CC1=O` [Sinomenine] to `COC1=CC=CC2=C1C(=C(/C(=O)N(C)C3=CC=C(C=C3)C(F)(F)F)C(=O)N2C)/O` [Tasquinimod], the efficacy rises from -20.7% to -6.06%.

Going from `CO[C@H]1C[C@@H]2CC[C@@H](C)[C@@](O)(O2)C(=O)C(=O)N2CCCC[C@H]2C(=O)O[C@H]([C@@H](C)C[C@@H]2CC[C@@H](O)[C@H](OC)C2)CC(=O)[C@H](C)/C=C(\C)[C@@H](O)[C@@H](OC)C(=O)[C@H](C)C[C@H](C)/C=C/C=C/C=C/1C` [Sirolimus] to `COC1=CC=C(C=C1)C(=O)C2CCN(CC2)CC(=O)N(CC3CC3)C\C4=N\C5=C(\COCC5)C(=O)N4` [TNKS-656], the efficacy rises from -50.3% to -13.6%.

Going from `Cc1cc2c(cc1CC(=O)c1sccc1[S+](=O)([O-])Nc1onc(C)c1Cl)OCO2` [Sitaxentan] to `CCOC(=O)C1=CCCCC1[S+](=O)([O-])Nc1ccc(F)cc1Cl` (stereo not drawn) [TAK-242], the efficacy rises from -43.1% to -34.7%.

Going from `OC(COC1=C2C(=O)\C=C(/OC2=CC=C1)C([O-])=O)COC3=C4C(=O)\C=C(/OC4=CC=C3)C([O-])=O` [Sodium cromoglycate] to `O=C(O)c1cc(/N=N/c2ccc(S(=O)(=O)Nc3ccccn3)cc2)ccc1O` [Sulfasalazine], the efficacy rises from -6.55% to 8.3%.

First: CC1(C)CN(C(=O)c2ccc(-c3cccc4nc(NC(=O)C5CC5)nn34)cc2)C1 [Solcitinib]
Second: CN(C(=O)c1ccc(F)cc1C(F)(F)F)C1CCN(c2nnc(-c3ccnn3C)c3ccccc23)CC1 [Taladegib]
The efficacy of the first is higher: -18.3% for the first, -25.6% for the second.

Compared with `C[C@H]1CN(C[C@@H](C)N1)C2=C(F)C3=C(C(=C2F)N)C(=O)\C(=C/N3C4CC4)C(O)=O` [Sparfloxacin], `C[C@@H]1CN(Cc2ccc(F)cc2)[C@@H](C)CN1C(=O)c1cc2c(C(=O)C(=O)N(C)C)cn(C)c2cc1Cl` [Talmapimod] is lower in efficacy: -10.7% for the first, -32.8% for the second.

Going from `C[C@]12Cc3cn[nH]c3C[C@@H]1CC[C@@H]1[C@@H]2CC[C@@]2(C)[C@H]1CC[C@]2(C)O` [Stanozolol] to `CC[C@H](/C=C/[C@@H](C)[C@H]1CC[C@H]2[C@@H]3CC=C4C[C@@H](O)CC[C@]4(C)[C@H]3CC[C@]12C)C(C)C` [Stigmasterol], the efficacy rises from -19.3% to 11.5%.

First: N#Cc1c(N(CC(=O)[O-])CC(=O)[O-])sc(C(=O)[O-])c1CC(=O)[O-] [Strontium Ranelate]
Second: CC1=C(CC(=O)O)c2cc(F)ccc2/C1=C\c1ccc([S+](C)[O-])cc1 (stereo not drawn) [Sulindac]
The efficacy of the first is higher: -15.5% for the first, -20.4% for the second.

Compared with `Cc1nnc(N[S+](=O)([O-])c2ccc(N)cc2)s1` [Sulfamethizole], `C[N]1C2=C(SC(=C2)[S+](C)[O-])C\3=C1C(=O)N(CC4=CC(=CC=C4)N)\N=C3` (stereo not drawn) [TEPP-46] is higher in efficacy: -10.7% for the first, 21.5% for the second.

First: CN[C@@H]1Cc2cccc3[nH]c(=O)n(c23)C1 [Sumanirole maleate]
Second: F\C1=C\N(C2CCCO2)C(=O)NC1=O (stereo not drawn) [Tegafur]
The efficacy of the first is lower: -12.4% for the first, -8.62% for the second.

First: CCOCC(O)COc1ccc(NC(=O)CC[S+](C)C)cc1 (stereo not drawn) [Suplatast tosylate]
Second: CN1C(=O)/C(=C(NC2=CC=C(I)C=C2F)\C3=C1\N=C/N(C[C@@H](O)CO)C3=O)F [TAK-733]
The efficacy of the first is higher: -20.9% for the first, -73.1% for the second.

Going from `Cc1ccc(C(=O)Nc2ccc([S+](=O)([O-])O)c3cc([S+](=O)([O-])O)cc([S+](=O)([O-])O)c23)cc1NC(=O)c1cccc(NC(=O)Nc2cccc(C(=O)Nc3cc(C(=O)Nc4ccc([S+](=O)([O-])O)c5cc([S+](=O)([O-])O)cc([S+](=O)([O-])O)c45)ccc3C)c2)c1` [Suramin sodium] to `O=C(COCC(=O)N1CCN(C(c2ccccc2)c2ccccc2)CC1)Nc1ccc(Cl)cc1C(=O)O` [TM-5275], the efficacy rises from -20.9% to 6.23%.

First: Cc1coc2c1C(=O)C(=O)c1c-2ccc2c1CCCC2(C)C [Tanshinone IIA]
Second: CCN(C1CCOCC1)C2=C(C)C(=CC(=C2)C3=CC=C(CN4CCOCC4)C=C3)C(=O)NC\C5=C(C)\C=C(C)/NC5=O [Tazemetostat]
The efficacy of the first is higher: -14.6% for the first, -59% for the second.
